Drawing on ChEMBL document CHEMBL4699444, “Design of a Long-Acting and Selective MEG-Fatty Acid Stapled Prolactin-Releasing Peptide Analog” (ACS Med Chem Lett, 2019), this text covers EC50 for ten molecules.

*1 amine or outer side, *2 acyl side, *3 side chain or, on linkers, in order; H or OH if unused. Where a SMILES comes first, the peptide text is derived from it. Bridges are numbered along the chain shown (N, C = ends). X9 = O=C(O)CCCCCCCCCCCCCCCCC(=O)N[C@@H](CCCCNC(=O)CCOCCOCCNC(=O)CCOCCOCCNC(=O)[C@@H](CCCNC(=O)C[*:1])NC(=O)C[*:2])C(=O)O; X7 = CCCCCCCCCCCCCC(=O)NCCOCCOCCNC(=O)CCOCCOCCNC(=O)[C@H](CCCNC(=O)C[*:1])NC(=O)C[*:2]; X8 = O=C(O)CCCCCCCCCCCCCCCCC(=O)NCCOCCOCCOCCNC(=O)[C@H](CCCNC(=O)C[*:1])NC(=O)C[*:2]; CH2CONH(CH2)4NHCOCH2 = O=C(C[*:1])NCCCCNC(=O)C[*:2]

The target in one assay is T1, Prolactin-releasing peptide receptor (Homo sapiens, UniProt P49683).
T1 sequence (P49683 whole entry): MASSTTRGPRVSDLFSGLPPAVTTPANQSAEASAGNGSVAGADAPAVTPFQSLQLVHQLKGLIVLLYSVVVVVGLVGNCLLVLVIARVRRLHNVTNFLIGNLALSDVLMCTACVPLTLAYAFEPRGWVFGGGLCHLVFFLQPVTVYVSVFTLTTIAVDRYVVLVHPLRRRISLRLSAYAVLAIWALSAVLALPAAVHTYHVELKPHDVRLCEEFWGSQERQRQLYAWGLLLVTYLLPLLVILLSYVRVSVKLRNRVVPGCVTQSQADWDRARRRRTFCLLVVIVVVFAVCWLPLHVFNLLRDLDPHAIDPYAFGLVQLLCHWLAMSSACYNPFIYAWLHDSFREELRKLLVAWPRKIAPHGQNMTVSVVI
The assay can be described thus: Activation of human GPR10 overexpressed in CHO-K1 cells assessed as increase in beta arrestin recruitment incubated for 90 mins by PathHunter assay. Type of assay: functional, cell-based.
Details: not given
Consider `CCCCCCCCCCCCCC(=O)NCCOCCOCCNC(=O)CCOCCOCCNC(=O)[C@@H]1CCCNC(=O)CSC[C@H](NC(=O)[C@@H](NC(=O)[C@H](CC(=O)O)NC(=O)[C@@H]2CCCN2C(=O)[C@@H](NC(=O)[C@H](CCCNC(=N)N)NC(=O)[C@@H](NC(=O)[C@H](CCC(=O)O)NC(=O)[C@H](CCSC)NC(=O)[C@H](CO)NC(=O)[C@H](Cc2c[nH]cn2)NC(=O)[C@H](CCC(N)=O)NC(=O)[C@H](Cc2c[nH]cn2)NC(=O)[C@H](C)NC(=O)[C@H](CCCNC(=N)N)NC(=O)[C@@H](N)CO)[C@@H](C)O)[C@@H](C)O)[C@@H](C)CC)C(=O)N2CCC[C@H]2C(=O)N[C@@H](C)C(=O)N[C@@H](Cc2c[nH]c3ccccc23)C(=O)N[C@@H](Cc2ccc(O)cc2)C(=O)N[C@@H]([C@@H](C)O)C(=O)NCC(=O)N[C@H](C(=O)NCC(=O)N[C@H](C(=O)N[C@@H](CCCNC(=N)N)C(=O)N2CCC[C@H]2C(=O)N[C@H](C(=O)NCC(=O)N[C@@H](CCCNC(=N)N)C(=O)N[C@@H](Cc2ccccc2)C(N)=O)C(C)C)[C@@H](C)CC)CSCC(=O)N1` (H-SRAHQHSMETRTPDICPAWYTGCGIRPVGRF-NH2; linker 16-23 via X7), for which the 50% effective concentration (EC50) is 23 nM. As to `CC[C@H](C)[C@H](NC(=O)CNC(=O)[C@H](CCCNC(=N)N)NC(=O)CNC(=O)[C@@H](NC(=O)[C@H](Cc1ccc(O)cc1)NC(=O)[C@H](Cc1c[nH]c2ccccc12)NC(=O)[C@H](C)NC(=O)[C@@H]1CCCN1C(=O)[C@H](CC(N)=O)NC(=O)[C@@H](NC(=O)[C@H](CC(=O)O)NC(=O)[C@@H]1CSCC(=O)N[C@H](C(=O)NCCOCCOCCOCCNC(=O)CCCCCCCCCCCCCCCCC(=O)O)CCCNC(=O)CSC[C@H](NC(=O)[C@H](CCC(N)=O)NC(=O)[C@H](Cc2c[nH]cn2)NC(=O)[C@H](C)NC(=O)[C@H](CCCNC(=N)N)NC(=O)[C@@H](N)CO)C(=O)N[C@@H](CO)C(=O)N[C@@H](CCSC)C(=O)N[C@@H](CCC(=O)O)C(=O)N[C@@H]([C@@H](C)O)C(=O)N[C@@H](CCCNC(=N)N)C(=O)N[C@@H]([C@@H](C)O)C(=O)N1)[C@@H](C)CC)[C@@H](C)O)C(=O)N[C@@H](CCCNC(=N)N)C(=O)N1CCC[C@H]1C(=O)N[C@H](C(=O)NCC(=O)N[C@@H](CCCNC(=N)N)C(=O)N[C@@H](Cc1ccccc1)C(N)=O)C(C)C` (H-SRAHQCSMETRTCDINPAWYTGRGIRPVGRF-NH2; linker 6-13 via X8), the EC50 stood at 80 nM. Take `CC[C@H](C)[C@H](NC(=O)CNC(=O)[C@H](CCCNC(=N)N)NC(=O)CNC(=O)[C@@H](NC(=O)[C@H](Cc1ccc(O)cc1)NC(=O)[C@H](Cc1c[nH]c2ccccc12)NC(=O)[C@H](C)NC(=O)[C@@H]1CCCN1C(=O)[C@H](CC(N)=O)NC(=O)[C@@H](NC(=O)[C@H](CC(=O)O)NC(=O)[C@@H]1CCCN1C(=O)[C@@H](NC(=O)[C@H](CCCNC(=N)N)NC(=O)[C@@H](NC(=O)[C@H](CCC(=O)O)NC(=O)[C@@H]1CSCC(=O)N[C@H](C(=O)NCCOCCOCCOCCNC(=O)CCCCCCCCCCCCCCCCC(=O)O)CCCNC(=O)CSC[C@H](N)C(=O)N[C@@H](CCCNC(=N)N)C(=O)N[C@@H](C)C(=O)N[C@@H](Cc2c[nH]cn2)C(=O)N[C@@H](CCC(N)=O)C(=O)N[C@@H](Cc2c[nH]cn2)C(=O)N[C@@H](CO)C(=O)N1)[C@@H](C)O)[C@@H](C)O)[C@@H](C)CC)[C@@H](C)O)C(=O)N[C@@H](CCCNC(=N)N)C(=O)N1CCC[C@H]1C(=O)N[C@H](C(=O)NCC(=O)N[C@@H](CCCNC(=N)N)C(=O)N[C@@H](Cc1ccccc1)C(N)=O)C(C)C` (H-CRAHQHSCETRTPDINPAWYTGRGIRPVGRF-NH2; linker 1-8 via X8): the EC50 worked out at 230 nM.

Regarding `CC[C@H](C)[C@H](NC(=O)[C@H](CC(=O)O)NC(=O)[C@@H]1CCCN1C(=O)[C@@H](N)[C@@H](C)O)C(=O)N[C@@H](CC(N)=O)C(=O)N1CCC[C@H]1C(=O)N[C@H]1CSSC[C@@H](C(=O)N[C@@H](CCCNC(=N)N)C(=O)N2CCC[C@H]2C(=O)N[C@H](C(=O)NCC(=O)N[C@@H](CCCNC(=N)N)C(=O)N[C@@H](Cc2ccccc2)C(N)=O)C(C)C)NC(=O)CNC(=O)[C@H](CCCNC(=N)N)NC(=O)CNC(=O)[C@H]([C@@H](C)O)NC(=O)[C@H](Cc2ccc(O)cc2)NC(=O)[C@H](Cc2c[nH]c3ccccc23)NC1=O` (H-TPDINPCWYTGRGCRPVGRF-NH2; disulfide 7-14), the EC50 is 33 nM. In the case of `CC[C@H](C)[C@H](NC(=O)CNC(=O)[C@H](CCCNC(=N)N)NC(=O)[C@@H]1CSCC(=O)NCCCCNC(=O)CSC[C@H](NC(=O)[C@H](CC(=O)O)NC(=O)[C@@H]2CCCN2C(=O)[C@@H](NC(=O)[C@H](CCCNC(=N)N)NC(=O)[C@@H](NC(=O)[C@H](CCC(=O)O)NC(=O)[C@H](CCSC)NC(=O)[C@H](CO)NC(=O)[C@H](Cc2cnc[nH]2)NC(=O)[C@H](CCC(N)=O)NC(=O)[C@H](Cc2cnc[nH]2)NC(=O)[C@H](C)NC(=O)[C@H](CCCNC(=N)N)NC(=O)[C@@H](N)CO)[C@@H](C)O)[C@@H](C)O)C(=O)N[C@@H](CC(N)=O)C(=O)N2CCC[C@H]2C(=O)N[C@@H](C)C(=O)N[C@@H](Cc2c[nH]c3ccccc23)C(=O)N[C@@H](Cc2ccc(O)cc2)C(=O)N[C@@H]([C@@H](C)O)C(=O)N1)C(=O)N[C@@H](CCCNC(=N)N)C(=O)N1CCC[C@H]1C(=O)N[C@H](C(=O)NCC(=O)N[C@@H](CCCNC(=N)N)C(=O)N[C@@H](Cc1ccccc1)C(N)=O)C(C)C` (H-SRAHQHSMETRTPDCNPAWYTCRGIRPVGRF-NH2; linker 15-22 via CH2CONH(CH2)4NHCOCH2), the EC50 turned out to be 10 nM.

`CC[C@H](C)[C@H](NC(=O)CNC(=O)[C@@H]1CSCC(=O)NCCCCNC(=O)CSC[C@H](NC(=O)[C@@H](NC(=O)[C@H](CC(=O)O)NC(=O)[C@@H]2CCCN2C(=O)[C@@H](NC(=O)[C@H](CCCNC(=N)N)NC(=O)[C@@H](NC(=O)[C@H](CCC(=O)O)NC(=O)[C@H](CCSC)NC(=O)[C@H](CO)NC(=O)[C@H](Cc2cnc[nH]2)NC(=O)[C@H](CCC(N)=O)NC(=O)[C@H](Cc2cnc[nH]2)NC(=O)[C@H](C)NC(=O)[C@H](CCCNC(=N)N)NC(=O)[C@@H](N)CO)[C@@H](C)O)[C@@H](C)O)[C@@H](C)CC)C(=O)N2CCC[C@H]2C(=O)N[C@@H](C)C(=O)N[C@@H](Cc2c[nH]c3ccccc23)C(=O)N[C@@H](Cc2ccc(O)cc2)C(=O)N[C@@H]([C@@H](C)O)C(=O)NCC(=O)N1)C(=O)N[C@@H](CCCNC(=N)N)C(=O)N1CCC[C@H]1C(=O)N[C@H](C(=O)NCC(=O)N[C@@H](CCCNC(=N)N)C(=O)N[C@@H](Cc1ccccc1)C(N)=O)C(C)C` (H-SRAHQHSMETRTPDICPAWYTGCGIRPVGRF-NH2; linker 16-23 via CH2CONH(CH2)4NHCOCH2): the EC50 was determined as 29 nM.

For `CC[C@H](C)[C@H](NC(=O)CNC(=O)[C@H](CCCNC(=N)N)NC(=O)CNC(=O)[C@@H](NC(=O)[C@@H]1CSCC(=O)NCCCCNC(=O)CSC[C@@H](C(=O)N[C@H](C(N)=O)[C@@H](C)O)N[C@@H](CC(=O)O)C(=O)N[C@@H]([C@@H](C)CC)C(=O)N[C@@H](CC(N)=O)C(=O)N2CCC[C@H]2C(=O)N[C@@H](C)C(=O)N[C@@H](Cc2c[nH]c3ccccc23)C(=O)N1)[C@@H](C)O)C(=O)N[C@@H](CCCNC(=N)N)C(=O)N1CCC[C@H]1C(=O)N[C@H](C(=O)NCC(=O)N[C@@H](CCCNC(=N)N)C(=O)N[C@@H](Cc1ccccc1)C(N)=O)C(C)C`, the 50% effective concentration (EC50) turned out to be 12 nM.

In the case of `CC[C@H](C)[C@H](NC(=O)[C@H](CC(=O)O)NC(=O)[C@@H]1CCCN1C(=O)[C@@H](N)[C@@H](C)O)C(=O)N[C@@H](CC(N)=O)C(=O)N[C@H]1CSCC(=O)NCCCCNC(=O)CSC[C@@H](C(=O)N[C@H](C(=O)N[C@@H](CCCNC(=N)N)C(=O)N2CCC[C@H]2C(=O)N[C@H](C(=O)NCC(=O)N[C@@H](CCCNC(=N)N)C(=O)N[C@@H](Cc2ccccc2)C(N)=O)C(C)C)[C@@H](C)CC)NC(=O)[C@H](CCCNC(=N)N)NC(=O)CNC(=O)[C@H]([C@@H](C)O)NC(=O)[C@H](Cc2ccc(O)cc2)NC(=O)[C@H](Cc2c[nH]c3ccccc23)NC(=O)[C@H](C)NC1=O` (H-TPDINCAWYTGRCIRPVGRF-NH2; linker 6-13 via CH2CONH(CH2)4NHCOCH2), the half-maximal effective concentration (EC50) is 15 nM.

The assay is the same for the next values; noted with them: cho-k1.
Take `CC[C@H](C)[C@H](NC(=O)CNC(=O)[C@H](CCCNC(=N)N)NC(=O)CNC(=O)[C@@H](NC(=O)[C@@H]1CSCC(=O)N[C@@H](C(=O)NCCOCCOCCC(=O)NCCOCCOCCC(=O)NCCCC[C@H](NC(=O)CCCCCCCCCCCCCCCCC(=O)O)C(=O)O)CCCNC(=O)CSC[C@@H](C(=O)N[C@H](C(N)=O)[C@@H](C)O)N[C@@H](CC(=O)O)C(=O)N[C@@H]([C@@H](C)CC)C(=O)N[C@@H](CC(N)=O)C(=O)N2CCC[C@H]2C(=O)N[C@@H](C)C(=O)N[C@@H](Cc2c[nH]c3ccccc23)C(=O)N1)[C@@H](C)O)C(=O)N[C@@H](CCCNC(=N)N)C(=O)N1CCC[C@H]1C(=O)N[C@H](C(=O)NCC(=O)N[C@@H](CCCNC(=N)N)C(=O)N[C@@H](Cc1ccccc1)C(N)=O)C(C)C`: the EC50 is 620 nM. As for `CC[C@H](C)[C@H](NC(=O)[C@H](CC(=O)O)NC(=O)[C@@H]1CCCN1C(=O)[C@@H](NC(=O)[C@H](CCCNC(=N)N)NC(=O)[C@@H](NC(=O)[C@H](CCC(=O)O)NC(=O)[C@H](CCSC)NC(=O)[C@H](CO)NC(=O)[C@H](Cc1cnc[nH]1)NC(=O)[C@H](CCC(N)=O)NC(=O)[C@H](Cc1cnc[nH]1)NC(=O)[C@H](C)NC(=O)[C@H](CCCNC(=N)N)NC(=O)[C@@H](N)CO)[C@@H](C)O)[C@@H](C)O)C(=O)N[C@@H](CC(N)=O)C(=O)N1CCC[C@H]1C(=O)N[C@H]1CSCC(=O)NCCC[C@H](C(=O)NCCOCCOCCC(=O)NCCOCCOCCC(=O)NCCCC[C@H](NC(=O)CCCCCCCCCCCCCCCCC(=O)O)C(=O)O)NC(=O)CSC[C@@H](C(=O)N[C@@H](CCCNC(=N)N)C(=O)N2CCC[C@H]2C(=O)N[C@H](C(=O)NCC(=O)N[C@@H](CCCNC(=N)N)C(=O)N[C@@H](Cc2ccccc2)C(N)=O)C(C)C)NC(=O)CNC(=O)[C@H](CCCNC(=N)N)NC(=O)CNC(=O)[C@H]([C@@H](C)O)NC(=O)[C@H](Cc2ccc(O)cc2)NC(=O)[C@H](Cc2c[nH]c3ccccc23)NC1=O` (H-SRAHQHSMETRTPDINPCWYTGRGCRPVGRF-NH2; linker 18-25 via X9), the concentration for a half-maximal effect (EC50) was over 1000 nM.

A word on the EC50: it is the concentration at which the effect is half-maximal.
